Reference: patent US7259276B2, “Polyenecarboxylic acid derivatives, processes for preparing them, and their use” (Sanofi-Aventis Deutschland GmbH, priority 2002, dated 2007)

Assays:
[1] = cited from earlier work
[2] = biological target: glycosyltransferase (PBP 1b) (Escherichia coli, UniProt P02919); experiment: glycosyltransferase assay: displacement of 3H-moenomycin from the glycosyltransferase (PBP 1b)/3H-moenomycin complex; type: binding; conditions: displacement of 3H-moenomycin from PBP 1b; read-out: inhibitory constants (IC50 values) in the glycosyltransferase assay
Sequence of glycosyltransferase (PBP 1b) (P02919 whole entry): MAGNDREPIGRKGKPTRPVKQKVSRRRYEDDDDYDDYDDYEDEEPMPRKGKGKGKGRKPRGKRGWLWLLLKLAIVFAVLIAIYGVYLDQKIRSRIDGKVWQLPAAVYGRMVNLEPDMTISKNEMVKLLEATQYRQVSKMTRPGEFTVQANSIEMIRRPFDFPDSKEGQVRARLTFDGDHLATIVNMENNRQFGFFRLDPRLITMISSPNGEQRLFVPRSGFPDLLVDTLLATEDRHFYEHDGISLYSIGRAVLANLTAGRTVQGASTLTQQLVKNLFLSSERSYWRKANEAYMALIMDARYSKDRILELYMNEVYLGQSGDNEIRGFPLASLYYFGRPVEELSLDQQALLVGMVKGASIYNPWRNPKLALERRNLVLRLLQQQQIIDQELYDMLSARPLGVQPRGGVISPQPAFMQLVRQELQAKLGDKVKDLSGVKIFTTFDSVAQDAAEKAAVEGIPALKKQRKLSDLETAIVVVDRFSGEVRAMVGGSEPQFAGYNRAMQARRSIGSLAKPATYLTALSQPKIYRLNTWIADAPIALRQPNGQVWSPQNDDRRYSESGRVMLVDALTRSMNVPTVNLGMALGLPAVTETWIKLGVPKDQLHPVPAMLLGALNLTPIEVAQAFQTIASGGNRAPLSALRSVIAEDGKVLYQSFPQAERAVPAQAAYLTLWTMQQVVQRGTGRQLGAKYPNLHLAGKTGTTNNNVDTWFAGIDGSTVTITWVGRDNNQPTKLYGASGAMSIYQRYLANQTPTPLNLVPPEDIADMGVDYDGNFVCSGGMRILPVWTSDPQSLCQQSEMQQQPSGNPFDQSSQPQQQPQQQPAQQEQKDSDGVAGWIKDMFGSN
From the text: Table 1 summarizes, by way of example, the inhibitory concentrations (IC50) of some compounds of the invention. A special test system was used for finding glycosyltransferase inhibitors that are specific and very effective. This system uses a glycosyltransferase/^3H-moenomycin complex, which is brought into contact with substances that are to be tested. The determination of the GT-inhibitory effect is based on the displacement of radioactively labeled moenomycin A from the glycosyltransferase (PBP 1b)/^3H-moenomycin complex, it being possible to separate the released ^3H-moenomycin, as a soluble compound, from the fixed complex and to measure the remaining radioactivity using a Geiger counter.
The assay was carried out as described by Vollmer & Höltje (Antimicrobial Agents and Chemotherapy 2000, 44, 1181-1185), except that purified penicillin-binding protein 1b (PBP 1b; 5 pM), carrying ^3H-labeled moenomycin at the glycosyltransferase site, was used in the present example instead of [3H]benzylpenicillin. ^3H-Moenomycin was obtained from moenomycin A (Kurz et al., Eur. J. Biochem., 1998, 252, 500-507) by hydrogenating it with ^3H2:
6 mg of moenomycin, dissolved in 300 μL methanol, were added to a 1 cm^3 flask, after which 2 mg of palladium-charcoal (Degussa Type E10N/D) were added. The flask was then gassed, while excluding air, with 1 cm^3 3H2; and the reaction solution was left to hydrogenate for 15 minutes. After the reaction had come to an end, the catalyst was filtered off from the reaction mixture, which was diluted to 100 mL with ethanol. This solution can be used directly for preparing the glycosyltransferase/^3H-moenomycin complex. Total radioactivity of the reaction product: 6.56 GBq (177 mCi); specific activity: 1.9 TBq/mmol. The radioactive complex was attached to SPA PVT Copper His-Tag beads. The radioactive moenomycin that was displaced by the inhibitors was measured. • SPA PVT Copper His-Tag beads: Amersham RPN 0095; • PBS: GIBCO BRL 14200-067; • BSA: Calbiochem 12657; • NOG: SIGMA O-8001 (n-octyl β-D-glucopyranoside); • Tween 20: Acros 23336-067; • Microtiter plates: Greiner Labortechnik.
The determination was carried out in microtiter plates. 10 μL of the test solution were added to the microtiter plates, followed by 10 μL of ^3H-moenomycin (25 nM, 3.1 kBq/well) and 40 μL of SPA beads loaded with PBP 1b (100 μg of beads, 45 nM enzyme). The plates were sealed and left to stand at room temperature for 8 hours. After that, the beads were separated off from the test solution by centrifuging for 3 minutes at 1300 rpm. The distribution of the radioactivity was measured in a WALLAC MicroBeta® 1450 Counter.
The inhibitory values were calculated in accordance with the formula: [1−(cpmsample−cpmlow ctr)/(cpmhigh ctr−cpmlow ctr)]×100(%).

[3] = solubility (description of the substance); type: physicochemical; conditions: for solubility in organic solvents: medium-polar and polar organic solvents
[4] = stability (description of the substance); type: physicochemical; conditions: for stability in solution depending on pH: neutral, mildly acidic, strongly acidic, strongly alkaline media
Bacillus subtilis = conditions: against Bacillus subtilis; cited from earlier work

Which “absorption from the gastrointestinal tract” value [1] does the source give for moenomycin here?
Its value is “not absorbed from the gastrointestinal tract”.

For CC(O)C(O)/C=C/C=C/C=C/c1ccccc1/C=C/C=C/C(=O)O (stereo not drawn) [serpentemycin D], which IC50 [2] is on record?
The IC50 was 19 µM.

What about the “solubility in organic solvents” value [3] of the same compound?
The value was “soluble in medium-polar and polar organic solvents”.

What about the solubility in water [3] of the same compound?
Its solubility in water is “not particularly soluble in water”.

And the “sensitivity to light and air” value [4]?
The value was “sensitive to light and air”.

And the “stability in solution depending on pH” value [4]?
Its value is “stable in neutral and mildly acidic media but unstable in strongly acidic and strongly alkaline solution”.

For C/C=C/C=C\C=C\C=C/c1ccccc1/C=C/C=C/C(=O)O [serpentene, reference compound], which IC50 [2] is on record?
The IC50 was 18 µM.

What about the antibiotic effect (Bacillus subtilis) of the same compound?
Its antibiotic effect is “weak antibiotic effect”.

What does the source list for O=C(O)/C=C/C=C/C=C\c1ccccc1/C=C/C=C/C(=O)O [serpentemycin B]?
IC50 [2]: 0.1 µM; solubility in organic solvents [3]: soluble in medium-polar and polar organic solvents; solubility in water [3]: not particularly soluble in water; sensitivity to light and air [4]: sensitive to light and air; stability in solution depending on pH [4]: stable in neutral and mildly acidic media, but unstable in strongly acidic and strongly alkaline solution

What does the source list for O=C(O)/C=C/C=C\C=C\C=C/c1ccccc1/C=C/C=C/C(=O)O [serpentemycin A]?
IC50 [2]: 0.2 µM; solubility in organic solvents [3]: soluble in medium-polar and polar organic solvents; solubility in water [3]: not particularly soluble in water; sensitivity to light and air [4]: sensitive to light and air; stability in solution depending on pH [4]: stable in neutral and mildly acidic media but unstable in strongly acidic and strongly alkaline solution
